Values quoted from earlier work, collected in patent publication US12350135B2, “Absorbent article with odor control composition” (The Procter & Gamble Company, priority 2021, dated 2025).
Counter-ions that a name gives are not always drawn.

Settings: for water solubility: in water

Structure (SMILES) | water solubility | solubility in water (in words)
OCCOc1ccccc1 [2-phenoxyethanol] | about 2.67% | 
OCCc1ccccc1 [2-phenylethanol] | about 2% | 
O=[N+]([O-])C1(Br)COCOC1 [Bronidox L, 5-bromo-5-nitro-1,3-dioxane] | about 0.46% | 
CC1(C)C(=O)N(CO)C(=O)N1CO [DMDM hydantoin, 1,3-bis(hydroxymethyl)-5,5-dimethyI-2,4-imidazolidinedione] | more than 50% | 
ClC=CC[N+]12CN3CN(CN(C3)C1)C2.[Cl-] [Dowicil 200, 1-(3-Chlorallyl)-3,5,7-triaza-1-azoniaadamantane chloride] |  | freely soluble in water
OCc1ccccc1 [benzyl alcohol] | about 4% | 
[H]/N=C(\N/C(=N/[H])NCCCCCCNC(=N)NC(=N)Nc1ccc(Cl)cc1)Nc1ccc(Cl)cc1 [chlorhexidine diacetate salt, 1,1′-hexamethylene bis(5-(p-chlorophenyl)biguanide), reference compound] | about 1.8% | 
[H]/N=C(\N/C(=N/[H])NCCCCCCNC(=N)NC(=N)Nc1ccc(Cl)cc1)Nc1ccc(Cl)cc1 [chlorhexidine digluconate salt, 1,1′-hexamethylene bis(5-(p-chlorophenyl)biguanide), reference compound] | about 70% | 
CC(C)(O)C(Cl)(Cl)Cl [chlorobutanol, 1,1,1,-Trichloro-2-methylpropan-2-ol] | about 0.8% | 
[Na+].[O-][n+]1ccccc1[S-] [sodium pyrithione] | about 50% | 
